Assay results published in US10448639B2, “Fungicidal pyrazoles” (FMC CORPORATION, priority 2009, dated 2019).
Read-outs that look alike come from different tables or passages of the source.

Legend:
[1] = test system: Alternaria solani; assay: Test C: tomato early blight, preventive spray on tomato seedlings, visual disease rating; conditions: for Test C rating (% disease control): tomato early blight, 100 = 100% disease control; for pest or weed control at 200 µg/mL: Alternaria solani, in Solanum lycopersicum, 168 h
[2] = test system: Septoria tritici; assay: Test G: wheat leaf blotch, preventive spray on wheat seedlings, visual disease rating; conditions: for Test G rating (% disease control): wheat leaf blotch, 100 = 100% disease control; for pest or weed control at 200 µg/mL: Zymoseptoria tritici, in Triticum aestivum, 504 h
[3] = test system: Puccinia recondita f. sp. tritici; assay: Test I: wheat leaf rust, preventive spray on wheat seedlings, visual disease rating; conditions: for Test I rating (% disease control): wheat leaf rust, 100 = 100% disease control; for pest or weed control at 200 µg/mL: 192 h
[4] = test system: Puccinia recondita f. sp. tritici; assay: Test H: wheat leaf rust, curative spray on inoculated wheat seedlings, visual disease rating; conditions: for Test H rating (% disease control): wheat leaf rust, 100 = 100% disease control; for pest or weed control at 200 µg/mL: 144 h
[5] = test system: Septoria nodorum; assay: Test F: Septoria glume blotch, preventive spray on wheat seedlings, visual disease rating; conditions: for Test F rating (% disease control): 100 = 100% disease control; for pest or weed control at 200 µg/mL: Parastagonospora nodorum, in Triticum aestivum, 192 h
[6] = test system: Erysiphe graminis f sp. tritici; assay: Test J: wheat powdery mildew, preventive spray on wheat seedlings, visual disease rating; conditions: for Test J rating (% disease control): wheat powdery mildew, 100 = 100% disease control; for pest or weed control at 200 µg/mL: Blumeria graminis, in Triticum aestivum, 192 h
[7] = test system: Botrytis cinerea; assay: Test B: tomato Botrytis, preventive spray on tomato seedlings, visual disease rating; conditions: for Test B rating (% disease control): tomato Botrytis, 100 = 100% disease control; for pest or weed control at 200 µg/mL: Botrytis cinerea, in Solanum lycopersicum, 120 h
[8] = 0 = no control relative to controls
[9] = preventive, 0 = no control relative to controls
[10] = curative, 0 = no control relative to controls
[11] = Septoria glume blotch, 0 = no control relative to controls
[12] = preventive spray, 0 = no control
[13] = Septoria glume blotch on wheat, preventive spray, 0 = no control
[14] = read-out: Test C rating (% disease control)
[15] = read-out: Test G rating (% disease control)
[16] = read-out: Test I rating (% disease control)
[17] = read-out: Test H rating (% disease control)
[18] = read-out: Test F rating (% disease control)
[19] = read-out: Test J rating (% disease control)
[20] = read-out: Test B rating (% disease control)

Row | SMILES | Test C rating (% disease control) [1, 8] [%] | Test G rating (% disease control) [2, 8] [%] | Test I rating (% disease control) [3, 9] [%] | Test H rating (% disease control) [4, 10] [%] | Test F rating (% disease control) [5, 11] [%] | Test J rating (% disease control) [6, 8] [%] | Test B rating (% disease control) [7, 8] [%] | Test C rating (% disease control) [1, 12] [%] | Test G rating (% disease control) [2, 12] [%] | Test I rating (% disease control) [3, 12] [%] | Test H rating (% disease control) ([4]; curative spray, 0 = no control) [%] | Test F rating (% disease control) [5, 13] [%] | Test J rating (% disease control) [6, 12] [%] | Test B rating (% disease control) [7, 12] [%] | further results
1 | COc1cc(F)c(-c2c(C)nn(C)c2Oc2ccc(Cl)cc2)c(F)c1 [compound 206] | 99 | 99 | 99 | 41 | 84 | 100 | 99 | – | – | – | – | – | – | – | –
2 | COc1cc(F)c(Nc2c(-c3ccc(C)cc3)c(C)nn2C)c(F)c1 [compound 80] | – | – | – | – | – | – | – | 0 | 99 | 86 | 18 | 0 | 89 | 100 | –
3 | COc1cc(F)c(-c2c(C)nn(C)c2Oc2ccc(C)c(F)c2)c(F)c1 [compound 188] | 0 | 100 | 97 | 0 | 0 | 97 | 87 | – | – | – | – | – | – | – | –
4 | Cc1nn(C)c(Oc2ccc(Cl)c(F)c2)c1-c1c(F)cc(F)cc1F [compound 129] | – | – | – | – | – | – | – | 0 | 96 | 0 | 0 | 0 | 0 | 99 | –
5 | COc1ccc(-c2c(C)nn(C)c2Oc2c(F)cc(C#N)cc2F)c(F)c1 [compound 46] | – | – | – | – | – | – | – | 100 | 100 | 100 | 37 | 99 | 99 | 99 | –
6 | COc1cc(F)c(-c2c(C)nn(C)c2Oc2c(F)cccc2F)c(F)c1 [compound 84] | – | – | – | – | – | – | – | 100 | 100 | 100 | 98 | 78 | 99 | 100 | –
7 | Cc1nn(C)c(Nc2c(F)cc(Br)cc2F)c1-c1ccc(F)cc1Cl [Compound 365, N-(4-bromo-2,6-difluorophenyl)-4-(2-chloro-4-fluorophenyl)-1,3-dimethyl-1H-pyrazol-5-amine] | – | – | – | – | – | – | – | – | – | – | – | – | – | – | pest or weed control at 200 µg/mL ([1]; read-out: Test C disease control rating): 99%; pest or weed control at 200 µg/mL ([2]; read-out: Test G disease control rating): 100%; pest or weed control at 200 µg/mL ([3]; read-out: Test I disease control rating): 100%; pest or weed control at 200 µg/mL ([4]; read-out: Test H disease control rating): 74%; pest or weed control at 200 µg/mL ([5]; read-out: Test F disease control rating): 64%; pest or weed control at 200 µg/mL ([6]; read-out: Test J disease control rating): 100%; pest or weed control at 200 µg/mL ([7]; read-out: Test B disease control rating): 100%
8 | Cc1nn(C)c(Oc2c(F)cc(C#N)cc2F)c1-c1ccc(F)cc1Br [Compound 232, 4-[[4-(2-bromo-4-fluorophenyl)-1,3-dimethyl-1H-pyrazol-5-yl]oxy]-3,5-difluorobenzonitrile] | – | – | – | – | – | – | – | – | – | – | – | – | – | – | pest or weed control at 200 µg/mL [1, 14]: 99%; pest or weed control at 200 µg/mL [2, 15]: 100%; pest or weed control at 200 µg/mL [3, 16]: 100%; pest or weed control at 200 µg/mL [4, 17]: 0%; pest or weed control at 200 µg/mL [5, 18]: 99%; pest or weed control at 200 µg/mL [6, 19]: 100%; pest or weed control at 200 µg/mL [7, 20]: 100%
9 | COc1cc(F)c(-c2c(C)nn(C)c2Nc2c(F)cc(C#N)cc2F)c(F)c1 [compound 82] | – | – | – | – | – | – | – | 100 | 99 | 68 | 0 | 40 | 13 | 100 | –
10 | COc1ccc(-c2c(C)nn(C)c2Nc2ncc(Cl)cc2Cl)c(Cl)c1 [compound 267] | 79 | 100 | 96 | 0 | 60 | 93 | 100 | – | – | – | – | – | – | – | –
11 | Cc1nn(C)c(Oc2cc(F)c(C#N)cc2F)c1-c1ccc(F)cc1Cl [Compound 148, 4-[[4-(2-chloro-4-fluorophenyl)-1,3-dimethyl-1H-pyrazol-5-yl]oxy]-2,5-difluorobenzonitrile] | – | – | – | – | – | – | – | – | – | – | – | – | – | – | pest or weed control at 200 µg/mL [1, 14]: 99%; pest or weed control at 200 µg/mL [2, 15]: 100%; pest or weed control at 200 µg/mL [3, 16]: 100%; pest or weed control at 200 µg/mL [4, 17]: 61%; pest or weed control at 200 µg/mL [5, 18]: 100%; pest or weed control at 200 µg/mL [6, 19]: 99%; pest or weed control at 200 µg/mL [7, 20]: 99%
12 | Cc1nn(C)c(Nc2ccc(F)cc2Cl)c1-c1ccc(F)cc1Cl [Compound 175, N,4-bis(2-chloro-4-fluorophenyl)-1,3-dimethyl-1H-pyrazol-5-amine] | – | – | – | – | – | – | – | – | – | – | – | – | – | – | pest or weed control at 200 µg/mL [1, 14]: 99%; pest or weed control at 200 µg/mL [2, 15]: 96%; pest or weed control at 200 µg/mL [3, 16]: 99%; pest or weed control at 200 µg/mL [4, 17]: 93%; pest or weed control at 200 µg/mL [5, 18]: 82%; pest or weed control at 200 µg/mL [6, 19]: 100%; pest or weed control at 200 µg/mL [7, 20]: 100%
13 | COc1cc(F)c(-c2c(C)nn(C)c2Oc2c(F)cc(C#N)cc2F)c(F)c1 [compound 140] | – | – | – | – | – | – | – | 94 | 99 | 96 | 0 | 87 | 97 | 99 | –
14 | Cc1nn(C)c(Nc2cncnc2)c1-c1ccc(F)cc1Cl [compound 270] | 86 | 91 | 0 | 8 | 0 | 81 | 92 | – | – | – | – | – | – | – | –
15 | COc1cc(F)c(-c2c(C)nn(C)c2Oc2ccc(Cl)c(F)c2)c(F)c1 [compound 152] | 82 | 99 | 97 | 9 | 87 | 99 | 100 | – | – | – | – | – | – | – | –
16 | Cc1nn(C)c(Oc2c(F)cc(C#N)cc2F)c1-c1cccc(Cl)c1Cl [compound 273] | 0 | 72 | 27 | 0 | 0 | 43 | 0 | – | – | – | – | – | – | – | –
17 | Cc1nn(C)c(Nc2cc(Cl)ccc2F)c1-c1c(F)cc(C#N)cc1F [compound 142] | – | – | – | – | – | – | – | 13 | 99 | 95 | 0 | 20 | 90 | 33 | –
18 | Cc1nn(C)c(Nc2ccc(F)cc2)c1-c1ccc(F)cc1F [compound 194] | 86 | 99 | 91 | 0 | 0 | 99 | 97 | – | – | – | – | – | – | – | –
19 | Cc1nn(C)c(Oc2cc(C#N)c(C#N)cc2Cl)c1-c1c(F)cc(F)cc1F [compound 163] | 9 | 83 | 88 | 0 | 0 | 0 | 0 | – | – | – | – | – | – | – | –
